Article PMC5994430, “Mitochondrial Delivery of Phenol Substructure Triggers Mitochondrial Depolarization and Apoptosis of Cancer Cells” (Frontiers in Pharmacology, 2018)

How the values were obtained:
A549 cells = assay: Cell viability (neutral red); format: cell-based, Human; conditions: A549; 0.1 μM, 72 h
Description: (§1) Human colon cancer HT29 cells, colon-derived normal fibroblast CCD-18Co cells, lung cancer A549 cells, normal human bronchial epithelial (immortalized with adenovirus 12-SV40 virus hybrid Ad12SV40) BEAS-2B cells, breast cancer MDA-MB-231 cells, normal breast epithelial MCF10A cells, human osteosarcoma U-2OS cells were purchased from ATCC (Manassas, VA, United States). […] All subjects gave written informed consent in accordance with the Declaration of Helsinki. Cells were maintained in medium supplemented with 10% v/v fetal bovine serum, 1% v/v penicillin-streptomycin, 1% v/v L-glutamine. Morphological analysis was performed with a bright field microscope (Leica Microsystems, Wetzlar, Germany). At least 5 fields/experimental condition were examined.
(§2) LDH activity was measured in the extracellular medium and in the cell lysate: 50 μl of extracellular medium or 5 μl of cell lysate were incubated at 37°C with 5 mM NADH. The reaction was started by adding 20 mM pyruvic acid and was monitored for 6 min, measuring absorbance at 340 nm using a Synergy HT Multi-Detection Microplate Reader (Bio-Tek Instruments, Winoosky, MT, United States). […] Both intracellular and extracellular enzyme activities were expressed as μmol NADH oxidized/min/dish. The results were expressed as percentage of extracellular LDH versus total (intracellular plus extracellular) LDH. […] The absorbance of untreated cells was considered as 100% viability; the results were expressed as percentage of viable cells versus untreated cells. IC50 was calculated with the CompuSyn software^1.

BEAS-2B cells = assay: Cell viability (neutral red); format: cell-based, Human; conditions: BEAS-2B; 0.1 μM, 72 h
Description: as §1, §2

SMILES: C[P+](c1ccccc1)(c1ccccc1)c1ccccc1.[Cl-] [TPMP, methyltriphenylphosphonium chloride, reference compound]
- cell viability (A549 cells): did not reduce viability
- cell viability (BEAS-2B cells): did not reduce viability
